Series [1] relates to diagnosed torn muscle. Description: Treatment of a subject with diagnosed torn muscle. Conditions: person; for side effect of the prescriptions: NAPROSYN and FLEXERIL prescribed together; for relief by the third day: NAPROSYN and FLEXERIL prescribed together with bed rest, ice packs, heat. The series is classed as in vivo, human. An excerpt: The seventh subject was a person with a diagnosed torn muscle. Emergency Room treatment prescribed NAPROSYN (the trademark name for the drug naproxen sodium) an NSAID, and FLEXERIL(the trademark name for the drug cyclobenzaprene) a muscle relaxant. Also prescribed was bed rest and ice packs for the next 2 to 3 days. Heat was to be used by the second day to relieve spasm. […] This subject was given a protocol of 5 gram of ACI per dose, not the 3 gram ACI per dose as in the previous examples. This protocol was to be taken every hours 4 times per day.
In all examples mentioned there was no compounding of any pills and no placebos were given.

The subject of series [2] is arthritis. Conditions: as reported by the American Rheumatism Association; cited from earlier work.

Results on three molecules are retold here after patent publication US6492334B1, “Tri-compound analgesic for treating inflammation and pain” (priority 1999, dated 2002).

As for `CN(C)CCC=C1c2ccccc2C=Cc2ccccc21` [FLEXERIL, cyclobenzaprene], in series [1], the “side effect of the prescriptions” value is reported as “made them drowsy” and the “relief by the third day” value was “no relief”.
`COc1ccc2c(c1)c(CC(=O)O)c(C)n2C(=O)c1ccc(Cl)cc1` [INDOCIN, indomethacin]: in series [2], the “effect on arthritis compared with placebo” value is reported as “no more effect on arthritis than a placebo”.
For the molecule `COc1ccc2cc([C@H](C)C(=O)O)ccc2c1` [NAPROSYN, naproxen sodium], in series [1], the “side effect of the prescriptions” value is “made them drowsy” and the “relief by the third day” value is recorded as “no relief”.
